Experimental data taken from ChEMBL document CHEMBL4765284, “Optimization of 5-substituted thiazolyl ureas and 6-substituted imidazopyridines as potential HIV-1 latency reversing agents” (Eur J Med Chem, 2020).
≈ marks a conversion by molar mass, not a printed value.

Legend:
Cytomegalovirus = test: Antiviral activity against CMV infected in FlpIn-HEK293 cells assessed as click beetle green reporter driven gene expression incubated for 72 hrs by luciferase based cellular assay; type: functional, organism-based; details: HEK293, 72 h
[1] = test system: Human immunodeficiency virus 1; test: Antiviral activity against HIV-1 infected in FlpIn-HEK293 cells assessed as activation of long terminal repeat driven gene expression incubated for 72 hrs by luciferase based cellular assay; type: functional, organism-based; details: Human immunodeficiency virus 1, HEK293, 72 h
[2] = Metabolic stability in human liver microsomes assessed as half life at 1 uM measured upto 60 mins by LC-MS anlaysis; type: ADME, Microsome
[3] = Metabolic stability in mouse liver microsomes assessed as half life at 1 uM measured upto 60 mins by LC-MS anlaysis; type: ADME, Microsome
[4] = Metabolic stability in mouse liver microsomes assessed as intrinsic clearance at 1 uM measured upto 60 mins by LC-MS anlaysis; type: ADME, Microsome; details: read-out: CLH
[5] = Aqueous solubility of compound at pH 6.5 by nephelometry; type: physicochemical
[6] = Aqueous solubility of compound at pH 2 by nephelometry; type: physicochemical
[7] = Metabolic stability in human liver microsomes assessed as intrinsic clearance at 1 uM measured upto 60 mins by LC-MS analysis; type: ADME, Microsome; details: read-out: CLH

| SMILES | EC50 (Cytomegalovirus) [nM] | EC50 [1] [nM] | other results |
| --- | --- | --- | --- |
| Cc1cnc(NC(=O)N2CC(Nc3ccc(C)c(Cl)c3)C2)s1 | 3000 | 670 |  |
| O=C(Nc1ncc(Cl)s1)N1CCN(c2cc(C(F)(F)F)c(Cl)cn2)CC1 | 1800 | 920 |  |
| Cc1cnc(NC(=O)N2CC(Oc3ccc(C)c(Cl)c3)C2)s1 | 1900 | 220 |  |
| Cc1cnc(NC(=O)N2CCN(c3ccc(Cl)c(Cl)c3)CC2)s1 | 490 | 930 |  |
| Cc1ccc(N(C)C2CN(C(=O)Nc3ncc(Cl)s3)C2)cc1Cl | 2800 | 930 |  |
| Cc1cc(NC2CCN(C(=O)Nc3ncc(Cl)s3)CC2)ccc1Cl | > 40000 | > 40000 |  |
| Cc1ccc(OCCCc2nc3cc(Cl)cnc3[nH]2)cc1Cl | 12000 | 9400 | half-life at 1 µM [2]: 5 min; half-life at 1 µM [3]: < 2 min; microsomal CLint at 1 µM [4]: > 866 µL/min/mg; solubility kinetic [5]: < 1.6 µM; solubility kinetic [6]: 1.6 µM (≈ 0.538 µg/mL); microsomal CLint at 1 µM [7]: 329 µL/min/mg |
| Cc1cnc(NC(=O)N2CCN(c3ccc(C)c(Cl)c3)CC2C)s1 (centres undefined) | 5200 | 5000 |  |
| Cc1cnc2[nH]c(CCCOc3ccc(C)c(Cl)c3)nc2c1 | 24000 | 12000 |  |
| O=C(Nc1ncc(C(F)(F)F)s1)N1CCN(c2cnc(Cl)c(Cl)c2)CC1 | 480 | 700 |  |
| Cc1cnc(NC(=O)N2CCN(c3cc(C(F)(F)F)c(Cl)cn3)CC2)s1 | > 40000 | 730 |  |
| Cc1cnc(NC(=O)N2CC3(C2)CN(c2ccc(C)c(Cl)c2)C3)s1 | > 40000 | > 40000 |  |
| Cc1ccc(OCCCc2nc3ncc(Cl)cc3s2)cc1Cl | > 40000 | > 40000 |  |
| Cc1cc(N2CCN(C(=O)Nc3ncc(Cl)s3)CC2)ncc1C#N | 1000 | 460 |  |
| Cc1cc(OC2CCN(C(=O)Nc3ncc(Cl)s3)C2)ccc1Cl (centres undefined) | 2500 | 1500 |  |
| Cc1cnc(NC(=O)N2CCN(c3cncnc3)CC2)s1 | > 40000 | > 40000 |  |
| Cc1cc(OC2CCN(C(=O)Nc3ncc(Cl)s3)CC2)ccc1Cl | 20000 | 20000 |  |
| Clc1cnc2[nH]c(N3CCN(c4ccc(Cl)c(Cl)c4)CC3)nc2c1 | 2600 | 980 |  |
| O=C(Nc1ncc(Cl)s1)N1CCN(c2cncnc2)CC1 | 12000 | 8900 |  |
| Cc1cnc(NC(=O)N2CC(N(C)c3ccc(C)c(Cl)c3)C2)s1 | 16000 | 12000 |  |
| Cc1cnc(NC(=O)N2CCC(Nc3ccc(Cl)c(C)c3)CC2)s1 | 20000 | > 40000 |  |
| Cc1cc(N(C)C2CCN(C(=O)Nc3ncc(Cl)s3)CC2)ccc1Cl | > 40000 | > 40000 |  |

| SMILES | EC50 (Cytomegalovirus) [nM] | EC50 [1] [nM] | other results |
| --- | --- | --- | --- |
| Clc1cnc2[nH]c(CCCOc3ccc(Cl)c(Cl)c3)nc2c1 | 1200 | 3300 |  |
| Cc1cc(N[C@@H]2CCCN(C(=O)Nc3ncc(Cl)s3)C2)ccc1Cl | > 40000 | > 40000 |  |
| Cc1cnc(NC(=O)N2CCN(c3ccccc3)CC2)s1 | 5000 | 1700 |  |
| N#Cc1cnc(NC(=O)N2CCN(c3ccc(Cl)cc3)CC2)s1 | 3600 | 1500 |  |
| Cc1ccc(N2CC3(CN(C(=O)Nc4ncc(Cl)s4)C3)C2)cc1Cl | 19000 | 16000 |  |
| Cc1cnc(NC(=O)C2CCN(c3ccc(C)c(Cl)c3)CC2)s1 | > 40000 | 2500 |  |
| Cc1cnc(NC(=O)N2CCN(c3cccc(C#N)c3)CC2)s1 | 1800 | 230 |  |
| Cc1cnc(NC(=O)N2CCC(Oc3ccc(Cl)c(C)c3)CC2)s1 | 40000 | > 40000 |  |
| Cc1cnc(NC(=O)N2CCN(c3ccc(C)c(Cl)c3)C(C)C2)s1 (centres undefined) | 6500 | 8900 |  |
| Cc1ccc(N2CCCN(C(=O)Nc3ncc(Cl)s3)CC2)cc1Cl | 19000 | 22000 |  |
| Cc1cnc(NC(=O)N2CCC(Oc3ccc(Cl)c(C)c3)C2)s1 (centres undefined) | 5200 | 2000 |  |
| Cc1cnc(NC(=O)N2CCN(c3ccc(C)c(Cl)c3)CC2)s1 | 5000 | 470 |  |
| Cc1ccc(N2CCN(C(=O)Nc3ncc(C(F)(F)F)s3)CC2)cc1Cl | > 2000 | 1300 |  |
| Cc1cc(N[C@H]2CCCN(C(=O)Nc3ncc(Cl)s3)C2)ccc1Cl |  | > 40000 |  |
| Cc1cc(OC2CCCN(C(=O)Nc3ncc(Cl)s3)C2)ccc1Cl (centres undefined) |  | > 40000 |  |
| O=C(Nc1ncc(Cl)s1)N1CCN(c2ccc(Cl)cc2)CC1 | 1640 | 350 |  |
| Cc1cnc2sc(CCCOc3ccc(C)c(Cl)c3)nc2c1 | > 40000 | > 40000 |  |
| Cc1ccc(OC2CN(C(=O)Nc3ncc(Cl)s3)C2)cc1Cl | 1900 | 530 |  |
| Cc1cnc(NC(=O)N2CCN(c3cc(C)c(C#N)cn3)CC2)s1 | > 40000 | 4200 |  |
| Cc1ccc(N2CCN(C(=O)Nc3ncc(Cl)s3)C(C)C2)cc1Cl (centres undefined) | 1500 | 1300 |  |
| Cc1ccc(N2CCN(C(=O)Nc3nccs3)CC2)cc1Cl | 4000 | 3400 |  |
| Cc1cnc2[nH]c(CCCOc3cnc(Cl)c(Cl)c3)nc2c1 | 34000 | 21000 |  |

| SMILES | EC50 (Cytomegalovirus) [nM] | EC50 [1] [nM] | other results |
| --- | --- | --- | --- |
| Cc1cnc2[nH]c(CCCOc3ccc(Cl)c(Cl)c3)nc2c1 | 28000 | 14000 |  |
| Cc1cnc(NC(=O)CCCOc2ccc(Cl)c(C)c2)s1 |  |  | half-life at 1 µM [2]: 10 min; half-life at 1 µM [3]: 2 min; microsomal CLint at 1 µM [4]: 815 µL/min/mg; solubility kinetic [5]: 1.1 µM (≈ 0.357 µg/mL); solubility kinetic [6]: < 1.1 µM; microsomal CLint at 1 µM [7]: 175 µL/min/mg |
| Cc1cnc(NC(=O)N2CCC(N(C)c3ccc(Cl)c(C)c3)C2)s1 (centres undefined) | 33000 | > 40000 |  |
| Cc1cnc(NC(=O)N2CCN(c3ccc(Cl)cc3)CC2)s1 | 5500 | 2700 |  |
| Cc1ccc(N2CCN(C(=O)Nc3ncc(C#N)s3)CC2)cc1Cl | 2300 | 240 |  |
| O=C(Nc1ncc(Cl)s1)N1CCN(c2ccc(Cl)c(Cl)c2)CC1 | 800 | 310 |  |
| Cc1cc(N2CCN(C(=O)Nc3ncc(Cl)s3)CC2)ccc1Cl | 890 | 400 |  |
| Cc1cc(N2CCN(C(=O)Nc3ncc(Cl)s3)CC2)cnc1C#N | 830 | 210 |  |
| Cc1cc(N2CCN(C(=O)Nc3ncc(C#N)s3)CC2)ccc1Cl | 2300 | 710 |  |
| Cc1cc(N(C)C2CCN(C(=O)Nc3ncc(Cl)s3)C2)ccc1Cl (centres undefined) | 20000 | 11000 |  |
| Cc1ccc(N2CCC(C(=O)Nc3ncc(Cl)s3)CC2)cc1Cl | > 40000 | 2000 |  |
| Cc1cnc(NC(=O)N2CCC[C@@H](Nc3ccc(Cl)c(C)c3)C2)s1 | > 40000 | > 40000 |  |
| Cc1cnc(NC(=O)N2CCC[C@H](Nc3ccc(Cl)c(C)c3)C2)s1 |  | > 40000 |  |
| Cc1ccc(N2CCN(c3nc4cc(Br)cnc4[nH]3)CC2)cc1Cl | > 300 | 320 |  |
| Cc1cnc(NC(=O)N2CCC(Nc3ccc(Cl)c(C)c3)C2)s1 (centres undefined) | 14000 | 6200 |  |
| Cc1cnc(NC(=O)N2CCN(c3cnc(C#N)c(C)c3)CC2)s1 | 21000 | 10000 |  |
| Cc1cnc2[nH]c(N3CCN(c4cnc(Cl)c(Cl)c4)CC3)nc2c1 | 130 | 1300 |  |
| Cc1cnc2[nH]c(N3CCN(c4ccc(Cl)c(Cl)c4)CC3)nc2c1 | 820 | 750 |  |
| Cc1cnc(NC(=O)N2CCCN(c3ccc(C)c(Cl)c3)CC2)s1 | 21000 | 10000 |  |
| Cc1ccc(N2CCN(C(=O)Nc3ncc(Cl)s3)CC2C)cc1Cl (centres undefined) | 3700 | 820 |  |
| Cc1cnc(NC(=O)N2CCN(c3cnc(Cl)c(Cl)c3)CC2)s1 | 570 | 300 |  |
| Cc1cnc(NC(=O)N2CCN(c3ccc(Cl)c(C)c3)CC2)s1 | 2300 | 600 |  |
